Data reported in patent publication US20180244611A1, “Modulators of the Cystic Fibrosis Transmembrane Conductance Regulator Protein and Methods of Use” (AbbVie S.à.r.l., priority 2017, published 2018).

What was measured:
F508delCFTR [1] = biological target: T1, F508delCFTR (Homo sapiens, UniProt P13569, DEL508-508); test: Cell Surface Expression-Horse Radish Peroxidase (CSE-HRP) assay, test compound without co-corrector; type: cell-based; details: for Emax: maximum at any tested concentration, normalized to positive control, without co-corrector; for EC50: test compound without co-corrector;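 for Emax: percent of on-plate 2 µM positive control corrector response over DMSO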
T1 construct: expressed in transfected cells; host or cells: CFBE41o- human lung-derived epithelial cells (CFBE41o-F508delCFTR-HRP), doxycycline-inducible
T1 sequence (P13569 with tags, fused parts or gaps DEL508-508): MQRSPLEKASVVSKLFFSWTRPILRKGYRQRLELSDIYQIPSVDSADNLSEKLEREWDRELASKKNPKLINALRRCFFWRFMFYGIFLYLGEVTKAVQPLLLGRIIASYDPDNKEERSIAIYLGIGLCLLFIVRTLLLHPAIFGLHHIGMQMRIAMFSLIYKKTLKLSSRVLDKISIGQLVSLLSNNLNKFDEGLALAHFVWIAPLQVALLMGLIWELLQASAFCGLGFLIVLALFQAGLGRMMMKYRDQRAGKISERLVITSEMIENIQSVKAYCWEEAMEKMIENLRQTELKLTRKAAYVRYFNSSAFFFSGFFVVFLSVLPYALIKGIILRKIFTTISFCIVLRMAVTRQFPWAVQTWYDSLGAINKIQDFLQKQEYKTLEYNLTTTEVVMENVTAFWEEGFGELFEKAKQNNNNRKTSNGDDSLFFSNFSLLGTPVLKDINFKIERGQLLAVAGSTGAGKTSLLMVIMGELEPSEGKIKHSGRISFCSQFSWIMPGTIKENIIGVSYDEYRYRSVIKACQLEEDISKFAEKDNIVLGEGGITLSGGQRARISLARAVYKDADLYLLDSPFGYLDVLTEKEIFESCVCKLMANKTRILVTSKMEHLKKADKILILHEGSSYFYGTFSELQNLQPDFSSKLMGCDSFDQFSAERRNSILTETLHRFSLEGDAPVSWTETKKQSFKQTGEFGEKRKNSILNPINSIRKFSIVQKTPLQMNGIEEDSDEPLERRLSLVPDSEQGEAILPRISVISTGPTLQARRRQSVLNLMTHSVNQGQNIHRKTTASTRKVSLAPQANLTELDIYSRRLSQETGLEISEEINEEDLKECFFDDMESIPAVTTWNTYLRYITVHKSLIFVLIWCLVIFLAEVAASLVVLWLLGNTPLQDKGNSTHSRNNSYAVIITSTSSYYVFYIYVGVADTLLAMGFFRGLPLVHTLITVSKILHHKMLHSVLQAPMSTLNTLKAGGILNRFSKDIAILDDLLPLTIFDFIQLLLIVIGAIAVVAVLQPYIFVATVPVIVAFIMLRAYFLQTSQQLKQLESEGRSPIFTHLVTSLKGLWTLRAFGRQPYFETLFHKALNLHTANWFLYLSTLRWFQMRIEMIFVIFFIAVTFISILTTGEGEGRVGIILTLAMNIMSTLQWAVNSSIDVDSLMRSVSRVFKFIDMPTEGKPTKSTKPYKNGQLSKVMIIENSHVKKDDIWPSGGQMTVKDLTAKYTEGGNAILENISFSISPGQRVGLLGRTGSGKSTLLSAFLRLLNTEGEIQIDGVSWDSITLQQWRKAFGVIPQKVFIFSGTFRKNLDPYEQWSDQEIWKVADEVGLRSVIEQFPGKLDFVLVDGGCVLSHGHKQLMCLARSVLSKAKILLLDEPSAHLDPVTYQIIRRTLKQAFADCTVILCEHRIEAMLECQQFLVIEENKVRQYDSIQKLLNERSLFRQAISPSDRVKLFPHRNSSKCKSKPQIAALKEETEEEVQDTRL
How it was run: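 CFBE41o- cells expressing F508delCFTR with HRP in the fourth exofacial loop, induced with 0.5 μg/mL doxycycline for 72 h at 37° C, then exposed to compound alone for 18-24 h at 33° C, 8-point 3-fold series from 20 μM. Surface HRP read by luminol luminescence, normalized to positive corrector control versus DMSO; EC50 from variable-slope sigmoidal fit of three replicate plates.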

F508delCFTR [2] = biological target: T1, F508delCFTR; test: Cell Surface Expression-Horse Radish Peroxidase (CSE-HRP) assay, test compound with co-corrector; type: cell-based; details: with 2 μM co-corrector; for Maximum % activity (with co-corrector): maximum at any tested concentration, normalized to positive control;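 for Maximum % activity (with co-corrector): percent of 2 µM positive control corrector over DMSO; co-corrector is that same compound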
How it was run: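 CFBE41o- cells expressing F508delCFTR with HRP in the fourth exofacial loop, induced with 0.5 μg/mL doxycycline for 72 h, then treated 18-24 h at 33° C. with compound (8 points, top 20 μM, 3-fold) plus 2 μM co-corrector. Surface HRP read by luminol luminescence; activity normalised to positive control, EC50 from variable-slope sigmoidal fit.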

SMILES	Emax (F508delCFTR [1])	EC50 (F508delCFTR [1])	Maximum % activity (with co-corrector) (F508delCFTR [2])	EC50 (F508delCFTR [2])
CCC1(C(=O)NS(=O)(=O)c2cccc(Cl)c2Cl)CCc2c(Cl)cccc21 (centres unmarked) [II-107]	< 50%	< 3 µM	++ (≥150 and <350)	< 3 µM
CCC1(C(=O)NS(=O)(=O)c2cn(C)c3ccccc23)CCc2c(Cl)cccc21 (centres unmarked) [II-108]	50 to 150%	3 to 10 µM	+++ (≥350)	< 3 µM
COc1ccc(CCC2OCCCO2)c2c1C(C(=O)NS(=O)(=O)c1cccc3ccccc13)CCC2 (centres unmarked) [II-109]	≥ 150%	3 to 10 µM	+++ (≥350)	3 to 10 µM
COc1ccc(C#N)c2c1C(C(=O)NS(=O)(=O)c1cccc3ccccc13)CC2 (centres unmarked) [II-110]	≥ 150%	3 to 10 µM	+++ (≥350)	< 3 µM
COc1ccc(C#N)c2c1C(C(=O)NS(=O)(=O)c1cccc3ccccc13)CCC2 (centres unmarked) [II-111]	≥ 150%	3 to 10 µM	+++ (≥350)	< 3 µM
CCC1(C(=O)NS(=O)(=O)c2cccc(C3CCC3)c2C)CCc2c(Cl)cccc21 (centres unmarked) [II-112]	< 50%	3 to 10 µM	++ (≥150 and <350)	< 3 µM
CCC1(C(=O)NS(=O)(=O)c2cccc3cnccc23)CCc2c(Cl)cccc21 (centres unmarked) [II-113]	≥ 150%	3 to 10 µM	+++ (≥350)	< 3 µM
COc1cccc2c1C(C(=O)NS(=O)(=O)c1cccc3ccccc13)C2 (centres unmarked) [II-114]	≥ 150%	3 to 10 µM	+++ (≥350)	3 to 10 µM
COc1ccc(Br)c2c1C(C(=O)NS(=O)(=O)c1cccc3cccnc13)CC2 (centres unmarked) [II-116]	≥ 150%	3 to 10 µM	+++ (≥350)	3 to 10 µM
COc1ccc(Br)c2c1C(C(=O)NS(=O)(=O)c1ccc(F)c3ncccc13)CC2 (centres unmarked) [II-117]	≥ 150%	3 to 10 µM	+++ (≥350)	< 3 µM
CCC1(C(=O)NS(=O)(=O)c2cccc3ccccc23)Cc2cccc(OC)c21 (centres unmarked) [II-118]	≥ 150%	3 to 10 µM	+++ (≥350)	< 3 µM
COc1ccc(-c2cccc(OC(F)(F)F)c2)c2c1C(C(=O)NS(=O)(=O)c1cccc3ccccc13)CCC2 (centres unmarked) [II-119]	≥ 150%	3 to 10 µM	+++ (≥350)	3 to 10 µM
COc1ccc(/C=C/c2ccccc2)c2c1C(C(=O)NS(=O)(=O)c1cccc3ccccc13)CCC2 (centres unmarked) [II-120]	< 50%	3 to 10 µM	++ (≥150 and <350)	3 to 10 µM
COc1ccc(C2=CCOCC2)c2c1C(C(=O)NS(=O)(=O)c1cccc3ccccc13)CCC2 (centres unmarked) [II-121]	≥ 150%	3 to 10 µM	+++ (≥350)	< 3 µM
COc1ccc(-c2ccc(C)nc2)c2c1CCCC2C(=O)NS(=O)(=O)c1cccc2ccccc12 (centres unmarked) [II-122]	≥ 150%	3 to 10 µM	+++ (≥350)	< 3 µM
CCOc1ccc2c(S(=O)(=O)NC(=O)C3CCc4c(Br)ccc(OC)c43)cccc2n1 (centres unmarked) [II-123]	≥ 150%	3 to 10 µM	+++ (≥350)	3 to 10 µM
COc1ccc(N2CCCC2)c2c1C(C(=O)NS(=O)(=O)c1cccc3ccccc13)CCC2 (centres unmarked) [II-124]	≥ 150%	< 3 µM	+++ (≥350)	< 3 µM
CCC1(C(=O)NS(=O)(=O)c2cccc(N3CCCCC3)c2C)CCc2c(Cl)cccc21 (centres unmarked) [II-125]	50 to 150%	3 to 10 µM	+++ (≥350)	3 to 10 µM
CCC1(C(=O)NS(=O)(=O)c2cccc(N3CC(F)(F)C3)c2C)CCc2c(Cl)cccc21 (centres unmarked) [II-126]	50 to 150%	3 to 10 µM	+++ (≥350)	3 to 10 µM
CCC1(C(=O)NS(=O)(=O)c2cccc(N3CCC(F)(F)C3)c2C)CCc2c(Cl)cccc21 (centres unmarked) [II-127]	50 to 150%	3 to 10 µM	+++ (≥350)	< 3 µM
COc1ccc(-c2ccc(C(F)(F)F)nc2)c2c1CCCC2C(=O)NS(=O)(=O)c1cccc2ccccc12 (centres unmarked) [II-129]	≥ 150%	< 3 µM	+++ (≥350)	< 3 µM
COc1ccc(C2=CCOCC2)c2c1CCCC2C(=O)NS(=O)(=O)c1cccc2ccccc12 (centres unmarked) [II-130]	≥ 150%	< 3 µM	+++ (≥350)	< 3 µM

SMILES	Emax (F508delCFTR [1])	EC50 (F508delCFTR [1])	Maximum % activity (with co-corrector) (F508delCFTR [2])	EC50 (F508delCFTR [2])
COc1ccc(-c2ccc(C3CC3)nc2)c2c1CCCC2C(=O)NS(=O)(=O)c1cccc2ccccc12 (centres unmarked) [II-131]	≥ 150%	< 3 µM	+++ (≥350)	< 3 µM
COc1ccc(Br)c2c1C(C(=O)NS(=O)(=O)c1cccc3nc(C(C)C)ccc13)CC2 (centres unmarked) [II-132]	≥ 150%	< 3 µM	+++ (≥350)	< 3 µM
COc1ccc(Br)c2c1C(C(=O)NS(=O)(=O)c1cccc3c(OC)cccc13)CC2 (centres unmarked) [II-133]	≥ 150%	3 to 10 µM	+++ (≥350)	3 to 10 µM
COC(=O)c1ccc(OC)c2c1CCC2C(=O)NS(=O)(=O)c1cccc2ccccc12 (centres unmarked) [II-134]	≥ 150%	3 to 10 µM	+++ (≥350)	< 3 µM
COC(=O)c1cccc2c(S(=O)(=O)NC(=O)C3CCc4c(Br)ccc(OC)c43)cccc12 (centres unmarked) [II-135]	≥ 150%	3 to 10 µM	+++ (≥350)	3 to 10 µM
O=C(NS(=O)(=O)c1cccc2ccccc12)C1CCCc2c(Cl)ccc(OCCN3CCOCC3)c21 (centres unmarked) [II-136]	≥ 150%	3 to 10 µM	+++ (≥350)	3 to 10 µM
CC1(C(=O)NS(=O)(=O)Cc2ccccc2)CCc2c(Cl)cccc21 (centres unmarked) [III-3]	< 50%	≥ 10 µM	+ (<150)	≥ 10 µM
Cc1nn(C)c(C)c1S(=O)(=O)NC(=O)C1CCc2c(Cl)cccc21 (centres unmarked) [III-4]	< 50%	≥ 10 µM	+ (<150)	≥ 10 µM
COCCS(=O)(=O)NC(=O)C1CCc2c(Cl)cccc21 (centres unmarked) [III-5]	< 50%	≥ 10 µM	+ (<150)	≥ 10 µM
CCCS(=O)(=O)NC(=O)C1CCc2c(Cl)cccc21 (centres unmarked) [III-6]	< 50%	≥ 10 µM	+ (<150)	≥ 10 µM
COc1cccc2c1CC(C(=O)NS(=O)(=O)c1ccccc1C)CC2 (centres unmarked) [III-7]	< 50%	≥ 10 µM	++ (≥150 and <350)	3 to 10 µM
COc1ccc2c(c1)CCC2C(=O)NS(=O)(=O)c1ccccc1C (centres unmarked) [III-9]	< 50%	≥ 10 µM	+ (<150)	≥ 10 µM
Cc1ccccc1S(=O)(=O)NC(=O)C1CCc2ccccc2C1 (centres unmarked) [III-10]	< 50%	≥ 10 µM	+ (<150)	≥ 10 µM
COc1cccc2c1CCC2C(=O)NS(=O)(=O)c1c(C)nn(C)c1C (centres unmarked) [III-11]	< 50%	≥ 10 µM	+ (<150)	≥ 10 µM
COc1ccccc1S(=O)(=O)NC(=O)C1CCc2c(OC)cccc21 (centres unmarked) [III-12]	< 50%	≥ 10 µM	+ (<150)	3 to 10 µM
COc1cccc2c1CCC2C(=O)NS(=O)(=O)c1ccc(C)cn1 (centres unmarked) [III-13]	< 50%	≥ 10 µM	+ (<150)	≥ 10 µM
COc1cccc2c1CCC2C(=O)NS(=O)(=O)C1CCOCC1 (centres unmarked) [III-14]	< 50%	≥ 10 µM	+ (<150)	≥ 10 µM
COCCCS(=O)(=O)NC(=O)C1CCc2c(OC)cccc21 (centres unmarked) [III-15]	< 50%	≥ 10 µM	+ (<150)	≥ 10 µM
COCCS(=O)(=O)NC(=O)C1CCc2c(OC)cccc21 (centres unmarked) [III-16]	< 50%	≥ 10 µM	+ (<150)	≥ 10 µM
CCCS(=O)(=O)NC(=O)C1CCc2c(OC)cccc21 (centres unmarked) [III-17]	< 50%	≥ 10 µM	+ (<150)	≥ 10 µM
COc1ccccc1S(=O)(=O)NC(=O)C1CCc2c(Cl)cccc21 (centres unmarked) [III-18]	< 50%	≥ 10 µM	+ (<150)	≥ 10 µM
Cc1ccc(S(=O)(=O)NC(=O)C2CCc3c(Cl)cccc32)nc1 (centres unmarked) [III-19]	< 50%	≥ 10 µM	+ (<150)	≥ 10 µM
